Assay results: US10034915B2, “Small heat shock proteins and active fragments thereof as a therapy for inflammation and ischemia” (The Board of Trustees of the Leland Stanford Junior …, priority 2011, dated 2018)
“Also recorded” adds a separate entry of the source.

How the values were obtained:
EAE mice [1] = test: EAE in 129Sv WT mice immunized with MOG35-55/CFA, clinical scoring; format: in vivo, mouse; conditions: peptide every other day from peak of disease (10 μg, or 1 μg equimolar to 10 μg protein)
Description: To investigate if the therapeutic efficacy of HSPB5 is a common feature of the whole family of small heat shock proteins, we expressed recombinant HSPB1, HSPB4, and HSPB5. We then treated EAE mice every other day starting at the peak of disease, when clinical paralysis is apparent, with an intraperitoneal (IP) administration of 10 μg of either HSPB1, HSPB4, HSPB5, or PBS as the vehicle control. […] Treating mice in vivo with HSPB1, HSPB4, or HSPB5 led to a reduction in the production of pro-inflammatory cytokines by MOG stimulated splenocytes taken from MOG immunized mice (FIG. 1c). Improvement of the clinical score was dependent on continued dosing of the sHSP. After dosing was stopped, symptoms returned, and paralysis worsened after 96 hours.
Therapeutic Peptides from HSPB5 in EAE. […] We made a series of overlapping, 15-mer peptide fragments of HSPB5 and treated mice at the peak of disease with 10 μg of each peptide every other day, using HSPB5 as a positive control and PBS as a negative control.
EAE induction and scoring. Mice were immunized subcutaneously with 100 μL of myelin oligodendrocyte glycoprotein (MOG) peptide 35-55 (2 mg/mL) and Complete Freund's adjuvant (CFA) (4 mg/mL) on Day 0. […] Mice were randomized at the peak of disease into the treatment groups where they received 10 ug/200 μL of sHSP, 1 μg/200 uL of sHSP peptide, or 200 μL of PBS (vehicle) every other day. Mice were scored every day on a clinical scoring system: 0, healthy mouse; 1, limp tail; 2, weak hindlimbs; 3, complete hindlimb paralysis; 4, weak forelimbs and paralyzed hindlimbs; 5, dead.

[2] = system: pro-inflammatory cytokines of MOG stimulated splenocytes; test: Peripheral immune cell activation: cytokine production by MOG stimulated splenocytes of treated MOG immunized mice (ELISA); parameters: species or system mouse; conditions: mice treated in vivo; splenocytes from MOG immunized mice
Description: Peripheral immune cell activation and cytokine analysis. Spleens and lymph nodes were isolated from mice 9 days after immunization with MOG35-55 and CFA. Spleens were mechanically disrupted to isolate single cell splencytes suspension. Cells were cultured in flat bottomed, 96-well plates in media (RPMI 1640 supplemented with […] L-glutamine, 1 mM sodium pyruvate, 0.1 mM non-essential amino acids, 100 U/mL penicillin, 0.1 mg/mL streptomycin, 0.5 uM 2-mercaptoethanol, and 10% fetal calf serum). Cells were stimulated with MOG35-55 (5 ug/mL, 10 ug/mL, and 20 ug/mL). For all activation assays, splenocytes were pooled from three mice per group and triplicate wells were plated. Supernatants of cells were collected at the time of peak production for each cytokine (48 hrs: IL-2, IL-12p40, IL-6; 72 hrs: TNFα and IFNγ; 96 hrs: IL-17; 120 hrs: IL-10). Cytokines were measured in the supernatants using anti-mouse OPTEIA ELISA kits (BD Pharmingen for IFNγ, IL-10, IL-2, IL-6, and IL-12p40; R&D Systems for IL-17 and TNFα).

HSPB5−/− EAE mice = test: EAE in 129Sv HSPB5−/− mice immunized with MOG35-55/CFA; format: in vivo, mouse
Description: Efficacy of HSPB5 73-92 in EAE in HSPB5 deficient mice. We tested whether HSPB5 73-92 alone was sufficient to rescue EAE in alpha B crystallin deficient (HSPB5−/−) mice.
EAE induction and scoring. Mice were immunized subcutaneously with 100 μL of myelin oligodendrocyte glycoprotein (MOG) peptide 35-55 (2 mg/mL) and Complete Freund's adjuvant (CFA) (4 mg/mL) on Day 0. […] […] Mice were scored every day on a clinical scoring system: 0, healthy mouse; 1, limp tail; 2, weak hindlimbs; 3, complete hindlimb paralysis; 4, weak forelimbs and paralyzed hindlimbs; 5, dead.

EAE mice [3] = test: EAE in 129Sv WT mice immunized with MOG35-55/CFA, clinical scoring; format: in vivo, mouse; conditions: prevention paradigm
[4] = system: partially denatured proteins; conditions: in vitro, literature; cited from earlier work

Sequence: DRFSVNLDVKHFSPEELKVK [HSPB5 73-92]
- therapeutic efficacy of peptide in EAE (clinical scores) (EAE mice [1]): comparably therapeutic; also recorded: as therapeutic as HSPB5 71-85
- production of pro-inflammatory cytokines by MOG stimulated splenocytes [2]: decrease peripheral immune activation
- disease scores (HSPB5−/− EAE mice; 10 ug peptide every other day from peak of disease): lower disease scores; also recorded: sufficient to ameliorate disease
- incidence of disease, Day 11 (HSPB5−/− EAE mice; treatment from Day 0): 0%
- incidence of disease, Day 12 (HSPB5−/− EAE mice; treatment from Day 0): 0%
- incidence of disease, Day 13 (HSPB5−/− EAE mice; treatment from Day 0): 11%
- incidence of disease, Day 14 (HSPB5−/− EAE mice; treatment from Day 0): 33%
- incidence of disease, Day 15 (HSPB5−/− EAE mice; treatment from Day 0): 33%
- incidence of disease, Day 16 (HSPB5−/− EAE mice; treatment from Day 0): 33%
- incidence of disease, Day 17 (HSPB5−/− EAE mice; treatment from Day 0): 66%
- incidence of disease, Day 18 (HSPB5−/− EAE mice; treatment from Day 0): 66%
- EAE clinical scores (HSPB5−/− EAE mice; treatment from Day 0, vs PBS): ameliorated EAE
- onset of disease (HSPB5−/− EAE mice; treatment from Day 0, vs PBS): delayed onset of disease
- EAE clinical scores (HSPB5−/− EAE mice; treatment from Day 0, vs PBS, listed as B5 73-92): lower EAE clinical scores
- disease severity (EAE mice [3]; 10 μg peptide every day from Day 0): ameliorated EAE
- disease severity (EAE mice [3]; 10 μg peptide every day from Day 0, listed as B5 73-92): lower disease severity
- onset of disease (EAE mice [3]; treatment from Day 0): delayed onset of disease
- molecular chaperone activity [4]: important for molecular chaperone activity
